Compound: CN(C)C[C@@H]1CCn2cc(c3ccccc32)C2=C(C(=O)NC2=O)c2cn(c3ccccc23)CCO1 [Ruboxistaurin] + NC(=O)Nc1cc(-c2cccc(F)c2)sc1C(=O)N[C@H]1CCCNC1 [AZD7762] (partner 0.2 µM)
Test: relative viability (nuclei count vs DMSO), 5 days (fraction); higher = more cells survive
Outline: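 For relative viability, nuclei counts in treated wells were divided by those in vehicle wells. Lung cancer cell lines had been pin-tool dosed in 1536-well plates the day after seeding and cultured for 5 days, then fixed and stained in one step (final 0.05% Triton X-100, 1% formaldehyde, 1 ug/ml Hoechst) and imaged at 4×. Doses were one drug alone or a fixed anchor-drug dose plus five library-drug doses (not always all listed) in √10 steps, and values are duplicate-plate medians.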

Cell Line | relative viability (first compound 0.08 µM) | relative viability (first compound 0.8 µM) | relative viability (first compound 2.53 µM) | relative viability (first compound 8 µM)
201T | 0.539 | 0.549 | 0.581 | 0.641
A-427 | 0.849 | 0.639 | 0.709 | 0.516
ABC-1 | 0.662 | 0.894 | 0.771 | 0.598
BEN | 0.833 | 0.668 | 0.639 | 0.509
CAL-12T | 0.691 | 0.661 | 0.748 | 0.65
ChaGo-K-1 | 0.86 | 0.856 | 0.908 | 0.911
EKVX | 0.607 | 0.623 | 0.649 | 0.656
EMC-BAC-2 | 1.12 | 1.05 | 1.11 | 0.891
EPLC-272H | 0.263 | 0.108 | 0.276 | 0.0372
H3255 | 1.05 | 0.984 | 0.924 | 0.97
HARA | 0.346 | 0.525 | 0.339 | 0.336
HCC-15 | 1.25 | 1.2 | 1.13 | 1.25
HCC-44 | 1.02 | 1.01 | 1.02 | 1.07
HCC-78 | 0.735 | 0.549 | 0.715 | 0.536
HCC-366 | 0.187 | 0.284 | 0.27 | 0.178
HCC-827 | 0.26 | 0.199 | 0.239 | 0.201
HOP-62 | 0.779 | 0.694 | 0.875 | 0.894
LC-2-ad | 0.882 | 0.807 | 0.862 | 0.813
LCLC-97TM1 | 0.268 | 0.297 | 0.442 | 0.416
LCLC-103H | 0.869 | 0.744 | 0.788 | 0.775

Cell Line | relative viability (first compound 0.08 µM) | relative viability (first compound 0.8 µM) | relative viability (first compound 2.53 µM) | relative viability (first compound 8 µM)
LK-2 | 0.402 | 0.448 | 0.377 | 0.19
LOU-NH91 | 0.823 | 0.74 | 0.792 | 0.726
LU99A | 0.385 | 0.312 | 0.349 | 0.289
LXF-289 | 1.12 | 1.03 | 1.07 | 1.17
NCI-H23 | 0.234 | 0.262 | 0.185 | 0.279
NCI-H322M | 0.56 | 0.564 | 0.573 | 0.475
NCI-H358 | 0.593 | 0.48 | 0.519 | 0.49
NCI-H441 | 1.08 | 1.1 | 1.15 | 1.34
NCI-H460 | 0.652 | 0.669 | 0.751 | 0.574
NCI-H522 | 0.987 | 0.804 | 0.833 | 0.81
NCI-H596 | 1.14 | 0.942 | 0.972 | 0.812
NCI-H647 | 0.529 | 0.422 | 0.452 | 0.371
NCI-H650 | 1.09 | 1.06 | 1.06 | 0.953
NCI-H727 | 0.657 | 0.607 | 0.487 | 0.61
NCI-H838 | 0.749 | 0.855 | 0.877 | 0.977
NCI-H1355 | 0.901 | 0.615 | 0.709 | 0.576
NCI-H1395 | 0.41 | 0.411 | 0.419 | 0.418
NCI-H1437 | 1.18 | 1.06 | 1.16 | 1.17
NCI-H1651 | 0.495 | 0.476 | 0.45 | 0.421
NCI-H1666 | 0.855 | 0.992 | 0.921 | 0.892

Cell Line | relative viability (first compound 0.08 µM) | relative viability (first compound 0.8 µM) | relative viability (first compound 2.53 µM) | relative viability (first compound 8 µM)
NCI-H1703 | 0.111 | 0.115 | 0.122 | 0.119
NCI-H1734 | 0.619 | 0.503 | 0.574 | 0.473
NCI-H1755 | 0.417 | 0.483 | 0.419 | 0.525
NCI-H1792 | 0.775 | 0.576 | 0.533 | 0.389
NCI-H1793 | 0.654 | – | 0.476 | 0.339
NCI-H1915 | 0.705 | 0.62 | 0.716 | 0.689
NCI-H1944 | 0.477 | 0.544 | 0.524 | 0.492
NCI-H1975 | 0.784 | 0.639 | 0.686 | 0.601
NCI-H1993 | 0.958 | 0.57 | 0.93 | 0.296
NCI-H2085 | 1.05 | 0.957 | 1.14 | 0.981
NCI-H2087 | 1.46 | 1.17 | 1.38 | 1.44
NCI-H2126 | 1.03 | 0.91 | 0.981 | 0.962
NCI-H2170 | 0.901 | 0.783 | 0.95 | 0.964
NCI-H2347 | 0.989 | 0.73 | 0.797 | 0.606
NCI-H2405 | 0.817 | 0.701 | 0.8 | 0.715
NCI-H3122 | 0.98 | 0.909 | 1.05 | 1.1
PC-3 [JPC-3] | 0.869 | 0.754 | 0.906 | 0.675
PC-14 | 0.391 | 0.33 | 0.346 | 0.439
RERF-LC-KJ | 1.05 | 1.04 | 0.982 | 1.19
SW 900 | 0.625 | 0.501 | 1.09 | 0.568
